Assay results reported in US12421235B2, “Bridged tricyclic carbamoylpyridone compounds and uses thereof” (Gilead Sciences, Inc., priority 2020, dated 2025).
Where two headings read alike, the source gives them in different places.

How the values were obtained:
[1] = High throughput microsomal stability assay (human liver microsomes); assay type: in vitro ADME; conditions: for HLM stability: human liver microsomes, 1 uM compound, NADPH + UDPGA cofactors, 37 C
Method: Example 49: High Throughput Microsomal Stability Assay
Metabolic stability of compounds was assessed using Human, or Rat Liver Microsomal assays (Corning). In this assay, 10 nL compounds at concentration of 1 mM in 100% DMSO were dispensed into 384-well polypropylene plates using the Echo 550 acoustic liquid dispenser (Labcyte®). Each plate contained 384 wells with a single test compound in each well.
A solution of human (Corning® Gentest™ Human Mixed Pooled Microsomes), or rat (Corning® Gentest™ Rat [Sprague-Dawley] Pooled Liver Microsomes) liver microsomes at 2 mg/ml in 100 mM K2HPO4/KH2PO4 pH 7.4 with Alamethicin from Trichoderma viride (Sigma-Aldrich) 0.0225 mg/ml were incubated on ice for 15 minutes. 5 uL of this solution was added to individual wells following 15 minute incubation at room temperature; and supplemented with 5 uL NADPH Regenerating Solution of cofactors (Corning® Gentest™ UGT Reaction Mix) containing 100 mM K2HPO4/KH2PO4 pH 7.4, 2.6 mM NADP+, 6.6 mM glucose-6-phosphate, 6.6 mM MgCl2, 0.8 U/mL glucose-6-phosphate dehydrogenase, 0.1 mM Sodium Citrate, 6.8 mM uridine diphosphate-glucuronic acid. Final concentration of analyte compounds at the beginning of the reaction was 1 uM. The reactions were incubated at 37° C. and time points of 0, 5, 15, 30, 40, 50, 60, and 70 minutes were collected for further analysis. Background data were collected using reactions without analyte compounds.
Upon collection of the reaction time points, samples were quenched with 30 uL of a solution of 72% acetonitrile, 8% methanol, 0.1% formic acid, 19.9% water, and internal standard (IS). Reaction plates were span in a centrifuge at speed of 4,000 rcf for 30 minutes and 4° C., following a dilution of the 10 uL quenched reaction into 40 uL de-ionized water, yielding assay plates.
Assay plates were analyzed using solid-state extraction coupled with quadrupole time-of-flight mass spectrometer, using Agilent QToF 6530 RapidFire 360 system, with C4 type A solid state cartridges. Analysis was performed in either positive or negative ionization modes. Mobile phases contained 0.1% formic acid in water for loading analytes onto solid state extraction cartridges, and 0.1% formic acid in acetonitrile for elution into mass spectrometer in positive ionization mode, or 0.1% acetic acid in water for loading and 0.1% acetic acid in acetonitrile for extraction in negative ionization mode. Peak-area ratios of integrated counts for individual compounds to IS were plotted as semi-logarithmic chart of log vs time. Initial, linear portion of decay was fitted to a linear regression equation to derive half time of a compound decay.
Pharmacological parameters for an analyte compound metabolism were calculated using the following equations: […]
Where. Calculation of In Vitro Intrinsic Clearance
Concentration refers to the protein concentration (mg/mL) in the reaction.
Calculation of In Vivo Intrinsic Clearance
This scales the in vitro intrinsic clearance up to the value that would be predicted for the entire mass of liver tissue (but with no restriction by blood flow). The value depends upon the size of the liver (species-dependent) and the yield of microsomal protein as appropriate (assumed to be species-independent).
Calculation of Predicted Clearance
Hepatic clearance will depend upon the inter-relationship of intrinsic clearance and hepatic blood flow and can be predicted from in vitro data using a variety of approaches.
Calculation of Hepatic Extraction
This is simply the predicted clearance expressed as a proportion of hepatic blood flow. E=CL/QH*100%
Intrinsic clearance of the instant compounds, as well as for reference compounds A-F, were calculated following the procedure above.

[2] = system: pLai RLuc reporter virus in MT-4 cells; assay: HIV MT-4 serum shift antiviral reporter assay; assay type: cell-based; conditions: Human immunodeficiency virus 1, MT4, 72 h, read-out: RLUC CCM
Method: Example 48: HIV MT-4 Serum Shift Antiviral Reporter Assay
To quantify the amount of protein binding to human serum, compounds were serially diluted (1:3) in DMSO and acoustically transferred onto 384-well assay plates via a Labcyte ECHO robot. Each plate contained up to 8 test compounds, including negative and positive controls, (DMSO, 5 μM AZT respectively). Assay plates were prepared in duplicate, and tested in either CCM (cell culture media) or HS/CCM (human serum/cell culture media). MT-4 cells were first pre-infected with pLai RLuc reporter virus for 2 h at 37° C., then further diluted in either CCM (RPMI media, 10% FBS, 1% P/S) or HS/CCM (RPMI media, 10% FBS, 50% HS, 1% P/S), and subsequently added to each plate using a Biotek Micro Flow dispenser. After a 72-h incubation in a humidified and temperature controlled incubator (37° C.), Renilla Glo (Promega) was added to all assay plates and chemiluminescence read using an Envision plate-reader. EC50 values were defined as the compound concentration that causes a 50% decrease in luminescence signal, and were calculated using a sigmoidal dose-response model to generate curve fits. To determine the amount of protein binding, EC50 fold shifts (or EC50 shifts) were calculated by dividing EC50 (HS/CCM)/EC50 (CCM). […]

[3] = Cytotoxicity assay in MT-4 cells; assay type: cell-based; conditions: human, uninfected MT-4 cells, Cell Titer Glo
Method: (§1) Compounds were tested in a high-throughput 384-well assay format for their ability to inhibit the replication of HIV-1 (IIIB) in MT-4 cells. Compounds were serially diluted (1:3) in DMSO on 384-well polypropylene plates and further diluted 200-fold into complete RPMI media (10% FBS, 1% P/S) using the Biotek Micro Flow and Labcyte ECHO acoustic dispenser. Each plate contained up to 8 test compounds, with negative (No Drug Control) and 5 μM AZT positive controls. MT-4 cells were pre-infected with 10 μL of either RPMI (mock-infected) or a fresh 1:250 dilution of HIV-1 IIIB concentrated virus stock. Infected and uninfected MT-4 cells were further diluted in complete RPMI media and added to each plate using a Micro Flow dispenser. After 5 days incubation in a humidified and temperature controlled incubator (37° C.), Cell Titer Glo (Promega) was added to the assay plates and chemiluminescence read using an Envision plate-reader. EC50 values were defined as the compound concentration that causes a 50% decrease in luminescence signal, and were calculated using a sigmoidal dose-response model to generate curve fits. Cytotoxicity Assay in MT-4 Cells Assays were performed as above except uninfected MT-4 cells were added to each well containing test compound. In addition, 10 μM puromycin was added to the last column of each assay plate to assess a base level of cytotoxicity.

[4] = system: HIV-1 (IIIB) in MT-4 cells; assay: HIV MT-4 antiviral assay; assay type: cell-based; conditions: Human immunodeficiency virus 1, MT4, 120 h, 5 days, Cell Titer Glo
Method: Example 47: HIV MT-4 Antiviral and Cytotoxicity Assay
Antiviral Assay in MT-4 Cells
as §1, with “fits.” for “fits. Cytotoxicity Assay in MT-4 Cells Assays were performed as above except uninfected MT-4 cells were added to each well containing test compound. In addition, 10 μM puromycin was added to the last column of each assay plate to assess a base level of cytotoxicity.”

SMILES | HLM stability [1] | EC50 [2] | CC50 at 5 days [3] | EC50 [4] | MS Cl improvement ([1]; relative to compound D) | MS Cl improvement [1]
CO[C@H]1C=C[C@H](C)N2C[C@H]1n1cc(C(=O)NCc3ccc(F)c(Cl)c3F)c(=O)c(O)c1C2=O [Example 9, (3S,6S,7R)—N-(3-chloro-2,4-difluorobenzyl)-12-hydroxy-6-methoxy-3-methyl-1,11-dioxo-1,6,7,11-tetrahydro-3H-2,7-methanopyrido[1,2-a][1,4]diazonine-10-carboxamide] | 0.48 L/h/kg | 0.42 nM | 4.27 µM | 1 nM |  | 
CO[C@@H]1C=C[C@H](C)N2C[C@H]1n1cc(C(=O)NCc3ccc(F)c(Cl)c3F)c(=O)c(O)c1C2=O [Example 10, (3S,6R,7R)—N-(3-chloro-2,4-difluorobenzyl)-12-hydroxy-6-methoxy-3-methyl-1,11-dioxo-1,6,7,11-tetrahydro-3H-2,7-methanopyrido[1,2-a][1,4]diazonine-10-carboxamide] | 0.40 L/h/kg | 0.28 nM | 4.01 µM | 1.2 nM |  | 
C[C@H]1CC[C@](C)(O)[C@H]2CN1C(=O)c1c(O)c(=O)c(C(=O)NCc3c(F)cc(F)cc3F)cn12 [Example 11, (1R,10S,13S)-6,13-dihydroxy-10,13-dimethyl-5,8-dioxo-N-[(2,4,6-trifluorophenyl)methyl]-2,9-diazatricyclo[7.4.1.02,7]tetradeca-3,6-diene-4-carboxamide] | 0.25 L/h/kg | 0.84 nM | 38.7 µM | 1.5 nM | 2.7 times relative to compound D | 
C[C@H]1C=C[C@@H](Cl)[C@H]2CN1C(=O)c1c(O)c(=O)c(C(=O)NCc3ccc(F)cc3F)cn12 [Example 13, (3S,6R,7R)-6-chloro-N-(2,4-difluorobenzyl)-12-hydroxy-3-methyl-1,11-dioxo-1,6,7,11-tetrahydro-3H-2,7-methanopyrido[1,2-a][1,4]diazonine-10-carboxamide] | 0.26 L/h/kg | 0.55 nM | 15.6 µM | 1.5 nM |  | 1.5 times relative to compound E
C[C@H]1C=C[C@](C)(O)[C@H]2CN1C(=O)c1c(O)c(=O)c(C(=O)NCc3c(F)cc(F)cc3F)cn12 [Example 15, (1R,10S,13S)-6,13-dihydroxy-10,13-dimethyl-5,8-dioxo-N-[(2,4,6-trifluorophenyl)methyl]-2,9-diazatricyclo[7.4.1.02,7]tetradeca-3,6,11-triene-4-carboxamide] | 0.19 L/h/kg | 1.64 nM | 28.4 µM | 7.9 nM |  | 
C[C@H]1CC[C@H](O)[C@H]2CN1C(=O)c1c(O)c(=O)c(C(=O)NCc3ccc(F)cc3F)cn12 [Example 16, (3S,6S,7R)—N-(2,4-difluorobenzyl)-6,12-dihydroxy-3-methyl-1,11-dioxo-1,4,5,6,7,11-hexahydro-3H-2,7-methanopyrido[1,2-a][1,4]diazonine-10-carboxamide] | 0.11 L/h/kg | 1.14 nM | 41.4 µM | 2.6 nM |  | 
C[C@H]1C=C[C@](C)(O)[C@H]2CN1C(=O)c1c(O)c(=O)c(C(=O)NCc3ccc(F)cc3F)cn12 [Example 17, (1R,10S,13S)—N-[(2,4-difluorophenyl)methyl]-6,13-dihydroxy-10,13-dimethyl-5,8-dioxo-2,9-diazatricyclo[7.4.1.02,7]tetradeca-3,6,11-triene-4-carboxamide] | 0.17 L/h/kg | 1.33 nM | 31.4 µM | 3 nM |  | 
CO[C@H]1C=C[C@H](C)N2C[C@H]1n1cc(C(=O)NCc3c(F)cc(F)cc3F)c(=O)c(O)c1C2=O [Example 18, (3S,6S,7R)-12-hydroxy-6-methoxy-3-methyl-1,11-dioxo-N-(2,4,6-trifluorobenzyl)-1,6,7,11-tetrahydro-3H-2,7-methanopyrido[1,2-a][1,4]diazonine-10-carboxamide] | 0.73 L/h/kg | 0.55 nM | 13.4 µM | 1.4 nM |  | 
CO[C@H]1C=C[C@H](C)N2C[C@H]1n1cc(C(=O)NCc3ccc(F)cc3F)c(=O)c(O)c1C2=O [Example 19, (3S,6S,7R)—N-(2,4-difluorobenzyl)-12-hydroxy-6-methoxy-3-methyl-1,11-dioxo-1,6,7,11-tetrahydro-3H-2,7-methanopyrido[1,2-a][1,4]diazonine-10-carboxamide] | 0.47 L/h/kg | 0.38 nM | 20 µM | 1.1 nM |  | 
[2H][C@]1(OC)C=C[C@H](C)N2C[C@H]1n1cc(C(=O)NCc3ccc(F)cc3F)c(=O)c(O)c1C2=O [Example 21, (3S,6S,7R)—N-(2,4-difluorobenzyl)-12-hydroxy-6-methoxy-3-methyl-1,11-dioxo-1,6,7,11-tetrahydro-3H-2,7-methanopyrido[1,2-a][1,4]diazonine-6-d-10-carboxamide] | 0.37 L/h/kg | 0.52 nM | 19.3 µM | 1.8 nM |  | 
